# Laboratory results: patent US20230141600A1, “IMIDAZOPYRAZINE DERIVATIVES” (priority 2020, published 2023)
# Structures can show the parent of a compound that is named as a salt. Where two headings read alike, the source gives them in different places.
# What was measured:
# [1] = test system: Acinetobacter baumannii ATCC17978; assay: 90% growth inhibitory concentration (IC90) determination, antimicrobial susceptibility testing; format: cell-based; conditions: ATCC17978, 90% growth inhibition, Iso-Sensitest broth, OD 600 nm over 16 h, 35±2° C., read-out: ATCC 17978 IC90
# Method: Antimicrobial Susceptibility Testing:
# 90% Growth Inhibitory Concentration (IC90) Determination
# The in vitro antimicrobial activity of the compounds was determined according to the following procedure:
# The assay used a 10-points Iso-Sensitest broth medium to measure quantitatively the in vitro activity of the compounds against Acinetobacter baumannii ATCC17961 and ATCC17978.
# Stock compounds in DMSO were serially twofold diluted (e.g. range from 50 to 0.097 μM final concentration) in 384 wells microtiter plates and inoculated with 49 μl the bacterial suspension in Iso-Sensitest medium to have a final cell concentration of ˜5×10^(5) CFU/ml in a final volume/well of 50 ul/well. Microtiter plates were incubated at 35±2° C.
# Bacterial cell growth was determined with the measurement of optical density at λ=600 nm each minutes over a time course of 16 h. Growth inhibition was calculated during the logarithmic growth of the bacterial cells with determination of the concentration inhibiting 50% (IC50) and 90% (IC90) of the growth.
# Table 1 provides the 90% growth inhibitory concentrations (IC90) in micromoles per liter of the compounds of present invention obtained against the strain Acinetobacter baumannii ATCC17978.
# [2] = test system: Acinetobacter baumannii ATCC17961; assay: as above; format: cell-based; conditions: Acinetobacter baumannii, ATCC17961, 16 h, read-out: ATCC 17961 IC90
# Method in brief: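 Twofold serial dilutions (e.g. 50 to 0.097 μM final) in Iso-Sensitest broth, inoculated at ~5×10^5 CFU/ml and incubated at 35±2 °C for 16 h with OD600 read every minute. IC90 taken from growth inhibition during the logarithmic phase.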
# [3] = 90% growth inhibition, Iso-Sensitest broth, OD 600 nm over 16 h, 35±2° C.
SMILES,IC90 [1],"IC90 [2, 3]",also measured
"CCC[N+](CCC)(CCC)CCOCCNC(=O)c1ccc(Nc2nccn3c(-c4ccc(OCC#N)c(F)c4F)cnc23)cc1Cl [Example 45, 2-[2-[[2-Chloro-4-[[3-[4-(cyanomethoxy)-2,3-difluoro-phenyl]imidazo[1,2-a]pyrazin-8-yl]amino]benzoyl]amino]ethoxy]ethyl-tripropyl-ammonium Iodide]",321 nM,,
"C[N+](C)(C)CC(=O)N1CCN(C(=O)c2ccc(Nc3nccn4c(-c5ccc(OCC#N)c(F)c5F)cnc34)cc2Cl)CC1 [Example 54, 2-(4-(2-Chloro-4-((3-(4-(cyanomethoxy)-2,3-difluorophenyl)imidazo[1,2-a]pyrazin-8-yl)amino)benzoyl)piperazin-1-yl)-N,N,N-trimethyl-2-oxoethan-1-aminium Formate]",45.2 nM,,
"Cc1cc(Nc2nccn3c(-c4ccc(OC(F)F)cc4)cnc23)ccc1C(=O)N(C)CCC1CC[N+](C)(C)CC1 [Example 19, 4-(2-(4-((3-(4-(difluoromethoxy)phenyl)imidazo[1,2-a]pyrazin-8-yl)amino)-N,2-dimethylbenzamido)ethyl)-1,1-dimethylpiperidin-1-ium Formate]",446 nM,,
"Cc1cc(Nc2nccn3c(-c4ccc(OCC#CCN)cc4)cnc23)ccc1C(=O)N(C)CCC1CC[N+](C)(C)CC1 [Example 5, 4-[[3-[4-(4-aminobut-2-ynoxy)phenyl]imidazo[1,2-a]pyrazin-8-yl]amino]-N-[2-(1,1-dimethylpiperidin-1-ium-4-yl)ethyl]-N,2-dimethyl-benzamide Formate]",2130 nM,,
"Cc1cc(Nc2nccn3c(-c4ccc(OC(F)F)cc4)cnc23)ccc1C(=O)N1CCN(C(=O)N2CCOC(C[N+](C)(C)C)C2)CC1 (stereo not drawn) [Example 33, [4-[4-[4-[[3-[4-(Difluoromethoxy)phenyl]imidazo[1,2-a]pyrazin-8-yl]amino]-2-methyl-benzoyl]piperazine-1-carbonyl]morpholin-2-yl]methyl-trimethyl-ammonium Formate]",996 nM,,
"CN(CCN1CC[N+](C)(C)CC1)C(=O)c1ccc(Nc2nccn3c(-c4ccc(OCC#N)c(F)c4F)cnc23)cc1Cl [Example 34, 2-Chloro-4-[[3-[4-(cyanomethoxy)-2,3-difluoro-phenyl]imidazo[1,2-a]pyrazin-8-yl]amino]-N-[2-(4,4-dimethylpiperazin-4-ium-1-yl)ethyl]-N-methyl-benzamide iodide]",246 nM,,
"CC[N+]1(CC)CCC(CCN(C)C(=O)c2ccc(Nc3nccn4c(-c5ccc(OC(F)F)cc5)cnc34)cc2C)CC1 [Example 24, 4-(2-(4-((3-(4-(difluoromethoxy)phenyl)imidazo[1,2-a]pyrazin-8-yl)amino)-N,2-dimethylbenzamido)ethyl)-1,1-diethylpiperidin-1-ium Formate]",742 nM,,
"CCc1cc(Nc2nccn3c(-c4ccc(OC)c(F)c4F)cnc23)ccc1C(=O)NCCCCC[N+](C)(CCCCCN)CC(=O)O (stereo not drawn) [Example 11, 5-Aminopentyl-(carboxymethyl)-[5-[[4-[[3-(2,3-difluoro-4-methoxy-phenyl)imidazo[1,2-a]pyrazin-8-yl]amino]-2-ethyl-benzoyl]amino]pentyl]-methyl-ammonium 2,2,2-trifluoroacetate]",,131 nM,
"CCc1cc(Nc2nccn3c(-c4ccc(OC)c(F)c4F)cnc23)ccc1C(=O)NCCCCC[N+](C)(CCCN)CC(=O)O (stereo not drawn) [Example 104, 3-aminopropyl-(carboxymethyl)-[5-[[4-[[3-(2,3-difluoro-4-methoxy-phenyl)imidazo[1,2-a]pyrazin-8-yl]amino]-2-ethyl-benzoyl]amino]pentyl]-methyl-ammonium Formate]",,,IC90 [2]: 118 nM

# Second part, led by results:
IC90 [1],"IC90 [2, 3]",SMILES,also measured
,59.6 nM,"Cc1cc(Nc2nccn3c(-c4ccc(OCC#N)c(F)c4F)cnc23)ccc1C(=O)N1CCN(C(=O)C[N+](C)(C)C)CC1 [Example 56, [2-[4-[4-[[3-[4-(Cyanomethoxy)-2,3-difluorophenyl]imidazo[1,2-a]pyrazin-8-yl]amino]-2-methylbenzoyl]piperazin-1-yl]-2-oxoethyl]-trimethylazanium Iodide]",
,1700 nM,"CCc1cc(Nc2nccn3c(-c4ccc(OC(F)F)c(F)c4F)cnc23)ccc1C(=O)N1CC[N+](C)(CC2CCNC2)CC1 (stereo not drawn) [Example 119, [4-[[3-[4-(Difluoromethoxy)-2,3-difluoro-phenyl]imidazo[1,2-a]pyrazin-8-yl]amino]-2-ethyl-phenyl]-[4-methyl-4-(pyrrolidin-3-ylmethyl)piperazin-4-ium-1-yl]methanone Formate]",
,147 nM,"CCc1cc(Nc2nccn3c(-c4ccc(OC(F)F)c(F)c4F)cnc23)ccc1C(=O)N1CCN(C(=O)C2CC[N+](C)(CCNC)CC2)CC1 (stereo not drawn) [Example 85, [4-[[3-[4-(difluoromethoxy)-2,3-difluoro-phenyl]imidazo[1,2-a]pyrazin-8-yl]amino]-2-ethyl-phenyl]-[4-[1-methyl-1-[2-(methylamino)ethyl]piperidin-1-ium-4-carbonyl]piperazin-1-yl]methanone bis(2,2,2-trifluoroacetate)]",
,2180 nM,"Cc1cc(Nc2nccn3c(-c4ccc(OC(F)F)cc4)cnc23)ccc1C(=O)N(C)CCC1CC[N+](C)(CCCC(=O)O)CC1 (stereo not drawn) [Example 57, 4-[4-[2-[[4-[[3-[4-(Difluoromethoxy)phenyl]imidazo[1,2-a]pyrazin-8-yl]amino]-2-methylbenzoyl]-methylamino]ethyl]-1-methylpiperidin-1-ium-1-yl]butanoic acid Hydrochloride]",
,205 nM,"CCc1cc(Nc2nccn3c(-c4ccc(OC(F)F)c(F)c4F)cnc23)ccc1C(=O)N1CCC(C(=O)N2CC[N+](C)(CC3CCNC3)CC2)CC1 (stereo not drawn) [Example 97, [4-[[3-[4-(Difluoromethoxy)-2,3-difluoro-phenyl]imidazo[1,2-a]pyrazin-8-yl]amino]-2-ethyl-phenyl]-[4-[4-methyl-4-(pyrrolidin-3-ylmethyl)piperazin-4-ium-1-carbonyl]-1-piperidyl]methanone 2,2,2-trifluoroacetate]",
,31 nM,"CCc1cc(Nc2nccn3c(-c4ccc(OC)c(F)c4F)cnc23)ccc1C(=O)NCCOCC[N+](C)(C)CC#N [Example 74, N-(Cyanomethyl)-2-(2-(4-((3-(2,3-difluoro-4-methoxyphenyl)imidazo[1,2-a]pyrazin-8-yl)amino)-2-ethylbenzamido)ethoxy)-N,N-dimethylethan-1-aminium Formate]",
,108 nM,"CCc1cc(Nc2nccn3c(-c4ccc(OC)c(F)c4F)cnc23)ccc1C(=O)NCCCNC(=O)C[C@@H]1CC[N+](C)(CC2CNC2)C1 (stereo partly drawn) [Example 130, N-[3-[[2-[(3S)-1-(Azetidin-3-ylmethyl)-1-methyl-pyrrolidin-1-ium-3-yl]acetyl]amino]propyl]-4-[[3-(2,3-difluoro-4-methoxy-phenyl)imidazo[1,2-a]pyrazin-8-yl]amino]-2-ethyl-benzamide bis(2,2,2-trifluoroacetate)]",
,1110 nM,"CCc1cc(Nc2nccn3c(-c4ccc(OC)c(F)c4F)cnc23)ccc1C(=O)N[C@@H](CNC(=O)C1CC[N+](C)(CC2CNC2)CC1)C(=O)OC (mixture of isomers) [Example 122, Methyl (2S)-3-[[1-(azetidin-3-ylmethyl)-1-methyl-piperidin-1-ium-4-carbonyl]amino]-2-[[4-[[3-(2,3-difluoro-4-methoxy-phenyl)imidazo[1,2-a]pyrazin-8-yl]amino]-2-ethyl-benzoyl]amino]propanoate formate 2,2,2-trifluoroacetate (Mixed Salt)]",
,546 nM,"C[N+](C)(C)CC(=O)N1CCN(C(=O)c2ccc(Nc3nccn4c(-c5cn(CC#N)nc5C(F)(F)F)cnc34)cc2Cl)CC1 [Example 65, [2-[4-[2-Chloro-4-[[3-[1-(cyanomethyl)-3-(trifluoromethyl)pyrazol-4-yl]imidazo[1,2-a]pyrazin-8-yl]amino]benzoyl]piperazin-1-yl]-2-oxo-ethyl]-trimethyl-ammonium Formate]",
,1780 nM,"CCc1cc(Nc2nccn3c(-c4ccc(Oc5ccccc5)c(F)c4F)cnc23)ccc1C(=O)NCC1CC[N+](C)(CC2CCNC2)CC1 (stereo not drawn) [Example 145, 4-[[3-(2,3-Difluoro-4-phenoxy-phenyl)imidazo[1,2-a]pyrazin-8-yl]amino]-2-ethyl-N-[[1-methyl-1-(pyrrolidin-3-ylmethyl)piperidin-1-ium-4-yl]methyl]benzamide Formate]",
,81.1 nM,"COc1ccc(-c2cnc3c(Nc4ccc(C(=O)N[C@H]5CC[C@@H](NC(=O)C[N+](C)(C)C)CC5)c(C)c4)nccn23)c(F)c1F [Example 63, 2-(((1s,4s)-4-(4-((3-(2,3-Difluoro-4-methoxyphenyl)imidazo[1,2-a]pyrazin-8-yl)amino)-2-methylbenzamido)cyclohexyl)amino)-N,N,N-trimethyl-2-oxoethan-1-aminium Chloride]",
,336 nM,"CCc1cc(Nc2nccn3c(-c4ccc(OC)c(F)c4F)cnc23)ccc1C(=O)NCC1CC[N+](C)(CC2CCCN2)CC1 (stereo not drawn) [Example 142, 4-[[3-(2,3-Difluoro-4-methoxy-phenyl)imidazo[1,2-a]pyrazin-8-yl]amino]-2-ethyl-N-[[1-methyl-1-(pyrrolidin-2-ylmethyl)piperidin-1-ium-4-yl]methyl]benzamide 2,2,2-trifluoroacetate]",
